“Also recorded” adds a separate entry of the source. Each block holds one compound with its values, some of them ahead of it.
Target: α1-adrenoceptor (3H-prazosin binding sites)
Experiment: displacement of 3H-prazosin from rat cerebral cortical (brain) membranes
Details: for -logIC50: 3H-prazosin displacement, rat cerebral cortical membranes; for affinity to alpha1-adrenoceptors (in words): discussion of Table 1
Procedure: IC50 values and apparent Ki values were determined as in Table 1.
Rat brain cortices were homogenized in approximately 30 volumes/wet weight of 50 mM Tris buffer, pH 7.4, containing 10 mM MgCl2 by use of a Polytron (setting 6 for 10 seconds). It should be noted that this buffer was used throughout the experimental procedures. The homogenate was centrifuged at 48,000×g for 10 minutes in a Sorvall RC-5B centrifuge. The resulting pellet was resuspended in buffer by use of a Polytron and recentrifuged. This process was repeated and the pellet was resuspended in approximately 200 volumes for affinity studies or 20 volumes for irreversibility experiments.
Specific binding was defined as the difference between total binding (measured in the absence of any ligand) and non-specific binding (measured in the presence of 10 microM phentolamine). Duplicate tubes were used for each condition. Reaction tubes were incubated for 30 minutes at 30° C., then diluted to 5 ml with ice cold buffer, and filtered under reduced pressure through Whatman GF/C glass fiber filters. The reaction tubes and filters were washed three additional times with buffer.

Compound: COc1cc2nc(N3CCN(C(=O)C=Cc4ccc(Cl)cc4)CC3)nc(N)c2cc1OC [Compound 11]
-logIC50: 7.90

Compound: COc1cc2nc(N3CCN(C(=O)n4ccnc4)CC3)nc(N)c2cc1OC [Compound 2]
-logIC50: 7.97
affinity to alpha1-adrenoceptors (in words): low affinity

Compound: COc1cc2nc(N3CCN(C(=O)C(F)=Cc4ccccc4)CC3)nc(N)c2cc1OC [Compound 20]
-logIC50: 7.89

Compound: COc1cc2nc(N3CCN(C(=O)CBr)CC3)nc(N)c2cc1OC [Compound 3]
-logIC50: 5.27
affinity to alpha1-adrenoceptors (in words): low affinity

Compound: COc1cc2nc(N3CCN(C(=O)C(=Cc4ccccc4)N=[N+]=[N-])CC3)nc(N)c2cc1OC [Compound 21]
-logIC50: 8.06

Compound: COc1cc2nc(N3CCN(C(=O)c4ccc(N=C=S)c(I)c4)CC3)nc(N)c2cc1OC [Compound 41]
-logIC50: 7.29
affinity to alpha1-adrenoceptors (in words): much lower affinity

Compound: COc1cc2nc(N3CCN(C(=O)C=Cc4ccc(Br)cc4)CC3)nc(N)c2cc1OC [Compound 12]
-logIC50: 7.10

Compound: COc1cc2nc(N3CCN(C(=S)Nc4cccc(N=C=S)c4)CC3)nc(N)c2cc1OC [Compound 35]
-logIC50: 7.30

Compound: COc1cc2nc(N3CCN(C(=O)C=Cc4ccc(N=C=S)cc4)CC3)nc(N)c2cc1OC [Compound 17]
-logIC50: 6.99

Compound: COc1cc2nc(N3CCN(C(=O)CCc4ccccc4)CC3)nc(N)c2cc1OC [Compound 7]
-logIC50: 8.47
affinity to alpha1-adrenoceptors (in words): affinity is considerably decreased

Compound: COc1cc2nc(N3CCN(C(=O)C(=Cc4ccccc4)c4ccccc4)CC3)nc(N)c2cc1OC [Compound 22]
-logIC50: 7.51

Compound: COc1cc2nc(N3CCN(C(=O)c4ccc5ccccc5c4)CC3)nc(N)c2cc1OC [Compound 24]
-logIC50: 7.31
affinity to alpha1-adrenoceptors (in words): decreased considerably

Compound: COc1cc2nc(N3CCN(C(=S)Nc4ccc(N=C=S)cc4)CC3)nc(N)c2cc1OC [Compound 34]
-logIC50: 7.18

Compound: COC(=O)/C=C/C(=O)N1CCN(c2nc(N)c3cc(OC)c(OC)cc3n2)CC1 [Compound 4]
-logIC50: 9.15

Compound: COc1cc2nc(N3CCN(C(=O)C=Cc4cccc(F)c4)CC3)nc(N)c2cc1OC [Compound 13]
-logIC50: 7.68

Compound: COc1cc2nc(N3CCN(C(=O)/C=C/c4ccc(N=[N+]=[N-])cc4)CC3)nc(N)c2cc1OC [Compound 16]
-logIC50: 9.49
affinity to alpha1-adrenoceptors (in words): single exception; also recorded: improved the affinity

Compound: COC(=O)/C=C/C(=O)Nc1ccc(/C=C/C(=O)N2CCN(c3nc(N)c4cc(OC)c(OC)cc4n3)CC2)cc1 [Compound 19]
-logIC50: 7.79

Compound: COc1cc2nc(N3CCN(C(=O)/C=C/c4ccc(NC(=O)CBr)cc4)CC3)nc(N)c2cc1OC [Compound 18]
-logIC50: 6.97

Compound: COc1ccc(/C=C/C(=O)N2CCN(c3nc(N)c4cc(OC)c(OC)cc4n3)CC2)cc1 [Compound 15]
-logIC50: 8.47

Compound: COc1cc2nc(N3CCN(C(=O)COc4ccccc4)CC3)nc(N)c2cc1OC [Compound 8]
-logIC50: 7.90
affinity to alpha1-adrenoceptors (in words): affinity is considerably decreased

Compound: COc1cc2nc(N3CCN(C(=O)C=Cc4c(F)c(F)c(F)c(F)c4F)CC3)nc(N)c2cc1OC [Compound 14]
-logIC50: 6.94

Compound: COc1cc2nc(N3CCN(C(=S)Nc4ccccc4)CC3)nc(N)c2cc1OC [Compound 29]
affinity to alpha1-adrenoceptors (in words): much higher affinity for alpha1 -adrenoceptors than prazosin

Compound: COc1cc2nc(N3CCN(C(=O)/C=C/C(=O)c4ccccc4)CC3)nc(N)c2cc1OC [Compound 23]
-logIC50: 7.06
affinity to alpha1-adrenoceptors (in words): reduced affinity considerably

Compound: COc1cc2nc(N3CCN(C(=O)/C=C/c4ccc(F)cc4)CC3)nc(N)c2cc1OC [Compound 10]
-logIC50: 7.92

More lines, main results first:

-logIC50: 7.45
Compound: COc1cc2nc(N3CCN(C(=O)[C@@H]4O[C@H]4c4ccccc4)CC3)nc(N)c2cc1OC (relative stereo) [Compound 26]
affinity to alpha1-adrenoceptors (in words): two orders of magnitude lower than that of cyclopropane

-logIC50: 7.15
affinity to alpha1-adrenoceptors (in words): very low affinity
Compound: COc1cc2nc(N3CCN(C(=O)C4C(C=C(C)C)C4(C)C)CC3)nc(N)c2cc1OC (stereo not drawn) [Compound 27]

-logIC50: 7.41
Compound: COc1cc2nc(N3CCN(C(=S)Nc4cccc5ccccc45)CC3)nc(N)c2cc1OC [Compound 38]

-logIC50: 7.92
Compound: COc1cc2nc(N3CCN(C(=O)C#Cc4ccccc4)CC3)nc(N)c2cc1OC [Compound 28]

-logIC50: 7.49
affinity to alpha1-adrenoceptors (in words): failed to yield an active compound
Compound: COc1cc2nc(N3CCN(C(=O)c4cc(Cl)nc(Cl)n4)CC3)nc(N)c2cc1OC [Compound 45]

-logIC50: 7.94
affinity to alpha1-adrenoceptors (in words): low affinity
Compound: COc1cc2nc(N3CCN(S(=O)(=O)c4ccc(C)cc4)CC3)nc(N)c2cc1OC [Compound 43]

-logIC50: 8.27
affinity to alpha1-adrenoceptors (in words): decrease
Compound: COc1cc2nc(N3CCN(C(=S)NC4CCCCC4)CC3)nc(N)c2cc1OC [Compound 30]

-logIC50: 7.93
Compound: COc1cc2nc(N3CCN(C(=O)c4cccc(CCl)c4)CC3)nc(N)c2cc1OC [Compound 40]

-logIC50: 7.56
affinity to alpha1-adrenoceptors (in words): considerably decreased the affinity
Compound: COc1cc2nc(N3CCN(C(=O)Nc4ccccc4)CC3)nc(N)c2cc1OC [Compound 39]

-logIC50: 8.61
affinity to alpha1-adrenoceptors (in words): high affinity
Compound: COc1cc2nc(N3CCN(C(=O)C4CC5C=CC4C5)CC3)nc(N)c2cc1OC (stereo not drawn) [Compound 46]

-logIC50: 7.47
affinity to alpha1-adrenoceptors (in words): low affinity
Compound: COc1cc2nc(N3CCN(S(=O)(=O)c4cccs4)CC3)nc(N)c2cc1OC [Compound 44]

-logIC50: 8.62
Compound: COc1cc2nc(N3CCN(C(=S)Nc4ccc(F)cc4)CC3)nc(N)c2cc1OC [Compound 31]

-logIC50: 7.80
Compound: COc1cc2nc(N3CCN(C(=S)Nc4c(F)c(F)c(F)c(F)c4F)CC3)nc(N)c2cc1OC [Compound 32]

-logIC50: 8.07
Compound: COC(=O)/C=C/C(=O)Nc1ccc(CCCCC(=O)N2CCN(c3nc(N)c4cc(OC)c(OC)cc4n3)CC2)cc1 [Compound 42]

-logIC50: 7.43
Compound: COC(=O)C=Cc1ccc(NC(=S)N2CCN(c3nc(N)c4cc(OC)c(OC)cc4n3)CC2)cc1 [Compound 37]

-logIC50: 9.29
Compound: COc1cc2nc(N3CCN(C(=O)[C@@H]4C[C@H]4c4ccccc4)CC3)nc(N)c2cc1OC (relative stereo) [Compound 25]
affinity to alpha1-adrenoceptors (in words): affinity similar to that of the cinnamoyl compound No. 9

— patent publication US5110927A (The United States of America as represented by the …, priority 1987, dated 1992)
